Measured values taken from PMC6801819, “Exogenous Iron Increases Fasciocidal Activity and Hepatocellular Toxicity of the Synthetic Endoperoxides OZ78 and MT04” (International Journal of Molecular Sciences, 2019).

Experiments:
HepG2 cells [1] = test: Cellular ATP content (CellTiter-Glo); type: cell-based, human
Description: (§1) Stock solutions of the drugs tested were prepared in DMSO 100% (v/v).
(§2) In viability assays, HepG2 cells were treated with 0.1% Triton-X or 0.1% DMSO for positive or negative control, respectively.
To assess cellular ATP content, HepG2 cells were seeded in white-wall 96-well plates with a clear bottom (Nunc). One day after seeding, cells were treated with the respective drugs. […] Luminescence was measured using Tecan M200 Infinite Pro.

HepG2 cells [2] = test: Cellular reactive oxygen species (DCF-DA); type: cell-based, human
Description: Stock solutions of the drugs tested were prepared in DMSO 100% (v/v). […] LC-MS measurements confirmed the stability of the compounds (data not shown). Treatments with AS, MT04, or OZ78 (100 or 500 µM) were performed either alone or in combination with 8% (v/v) hemin or FeCl2 solution for 24 h. The final iron concentration used was 122 µM (stock 1.5 mM) based on previous in vitro studies with F. hepatica. Dichlorodihydrofluorescein diacetate (DCF-DA) dissolved in DMSO was used to assess cellular formation of reactive oxygen species (ROS). HepG2 cells were seeded in a black-wall 96 well plate with a clear bottom as described above. Briefly, 30 min before treatment started, DCF-DA was added to the cells at a final concentration of 25 µM. DCF-DA was removed completely before the drugs were added. ROS was measured after 90 min and 24 h of drug exposure using a Tecan M200 Infinite Pro (excitation 485 nm, emission 535 nm).

adult F. hepatica = test: In vitro/ex vivo adult worm viability assay; type: cell-based, Fasciola hepatica; conditions: iron or hemin with 1% DMSO, no drug, 48 h or 72 h
Description: The experiments were performed, as described previously. Adult F. hepatica were collected from bovine liver bile ducts obtained from the local slaughterhouse (Basel, Switzerland). After careful washing, a single adult worm was placed per well (6-well plate, Costar, MA, USA) containing 5.4 mL RPMI 1640 (Gibco, N.Y., USA), supplemented with 1% (v/v) antibiotics (50 µg/mL streptomycin and 50 U/mL penicillin), 1% (v/v) drug solution, […] Control worms were incubated in 1% (v/v) DMSO combined with iron or hemin. Experiments were conducted in triplicates and repeated once. Cultures were kept at 37 °C in an atmosphere of 5% CO2. The viabilities of treated and untreated worms were monitored at 0, 24, 48, and 72 h. Worms were examined by eye and/or using a dissecting microscope (20× lenses). The viability of adult flukes was scored using the following scale: 4: normal activity; movements were visible without a microscope, 3: reduced activities, 2: very weak activities detected only using microscopic magnification, and 1: death of worm (no movement observed for two min using a microscope).

HepG2 cells [3] = test: Adenylate kinase leakage (membrane integrity test); type: cell-based, human
Description: as §1, §2
The assay was used according to the protocol supplied by the manufacturer.

Compound | impact on cellular ATP content (HepG2 cells [1]) | increase in ROS compared to DMSO, factor (HepG2 cells [2]) | viability of adult F. hepatica (adult F. hepatica) | cytotoxicity (AK release) (HepG2 cells [3])
[Cl][Fe][Cl] [Fe^2+, Fe(II)chloride] | no impact on cellular ATP content | did not trigger ROS production | slight reduction in viability | not cytotoxic
hemin [reference compound] | no impact on cellular ATP content | – | slight reduction in viability | –
